For one experiment, the target named is T1, hEP2/Gqs5 (Homo sapiens, UniProt P43116).
T1 construct: expressed in transfected cells; host or cells: HEK-293(EBNA)
Nature of the experiment: FLIPR calcium signal study, HEK-293(EBNA) cells. It is filed as cell-based. On the procedure: (§1) Cells were seeded at a density of 5x10^4 cells per well in Biocoat® Poly-D-lysine-coated black-wall, clear-bottom 96-well plates (Becton-Dickinson) and allowed to attach overnight in an incubator at 37 °C. Cells were then washed two times with HBSS-HEPES buffer (Hanks Balanced Salt Solution without bicarbonate and phenol red, 20 mM HEPES, pH 7.4) using a Denley Cellwash plate washer (Labsystems). After 45 minutes of dye-loading in the dark, using the calcium-sensitive dye Fluo-4 AM at a final concentration of 2 µM, plates were washed four times with HBSS-HEPES buffer to remove excess dye leaving 100 µl in each well. Plates were re-equilibrated to 37 °C for a few minutes.
Cells were excited with an Argon laser at 488 nm, and emission was measured through a 510-570 nm bandwidth emission filter (FLIPR™, Molecular Devices, Sunnyvale, CA). […] The peak increase in fluorescence intensity was recorded for each well. […] The peak fluorescence change in each drug-containing well was then expressed relative to the controls.
Compounds were tested in a high-throughput (HTS) or concentration-response (CoRe) format. In the HTS format, forty-four compounds per plate were examined in duplicates at a concentration of 10^-5 M. To generate concentration-response curves, four compounds per plate were tested in duplicates in a concentration range between 10^-5 and 10^-11 M. The duplicate values were averaged.

For the next experiment, the target named is T2, hEP3A/Gqi5 (Homo sapiens, UniProt P43115).
T2 construct: expressed in transfected cells; host or cells: HEK-293(EBNA)
T2 sequence (P43115 1-390): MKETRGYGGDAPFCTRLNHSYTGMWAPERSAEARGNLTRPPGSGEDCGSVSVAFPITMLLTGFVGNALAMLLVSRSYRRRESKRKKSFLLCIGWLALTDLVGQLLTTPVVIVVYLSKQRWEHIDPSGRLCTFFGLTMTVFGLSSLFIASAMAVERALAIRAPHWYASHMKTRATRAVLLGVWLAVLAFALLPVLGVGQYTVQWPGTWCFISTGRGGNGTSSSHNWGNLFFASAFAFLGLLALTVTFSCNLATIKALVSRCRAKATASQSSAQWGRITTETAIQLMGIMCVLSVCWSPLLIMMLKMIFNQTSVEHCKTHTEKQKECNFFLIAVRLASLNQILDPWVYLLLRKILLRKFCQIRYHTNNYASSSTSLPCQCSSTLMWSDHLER
The experiment in a line: FLIPR calcium signal study, HEK-293(EBNA) cells. It is filed as cell-based. On the procedure:
(§2) HEK-293(EBNA) cells, stably expressing one type or subtype of recombinant human prostaglandin receptors (prostaglandin receptors expressed: hDP/Gqs5; hEP1; hEP2/Gqs5; hEP3A/Gqi5; hEP4/Gqs5; hFP; hIP; hTP), were cultured in 100 mm culture dishes in high-glucose DMEM medium containing 10% fetal bovine serum, 2 mM I-glutamine, 250 µg/ml geneticin (G418) and 200 µg/ml hygromycin B as selection markers, and 100 units/ml penicillin G, 100 µg/ml streptomycin and 0.25 µg/ml amphotericin B.
as §1
(§3) Cells were excited with an Argon laser at 488 nm, and emission was measured through a 510-570 nm bandwidth emission filter (FLIPR™, Molecular Devices, Sunnyvale, CA). Drug solution was added in a 50 µl volume to each well to give the desired final concentration. The peak increase in fluorescence intensity was recorded for each well. On each plate, four wells each served as negative (HBSS-HEPES buffer) and positive controls (standard agonists: BW245C (hDP); PGE2 (hEP1; hEP2/Gqs5; hEP3A/Gqi5; hEP4/Gqs5); PGF2α (hFP); carbacyclin (hIP); U-46619 (hTP), depending on receptor). The peak fluorescence change in each drug-containing well was then expressed relative to the controls.
(§4) Compounds were tested in a high-throughput (HTS) or concentration-response (CoRe) format. In the HTS format, forty-four compounds per plate were examined in duplicates at a concentration of 10^-5 M. To generate concentration-response curves, four compounds per plate were tested in duplicates in a concentration range between 10^-5 and 10^-11 M. The duplicate values were averaged. In either, HTS or CoRe format each compound was tested on at least 3 separate plates using cells from different passages to give an n ≥ 3.

The next experiment concerns the target T3, hTP (Homo sapiens, UniProt P21731).
T3 construct: expressed in transfected cells; host or cells: HEK-293(EBNA)
T3 sequence (P21731 1-343): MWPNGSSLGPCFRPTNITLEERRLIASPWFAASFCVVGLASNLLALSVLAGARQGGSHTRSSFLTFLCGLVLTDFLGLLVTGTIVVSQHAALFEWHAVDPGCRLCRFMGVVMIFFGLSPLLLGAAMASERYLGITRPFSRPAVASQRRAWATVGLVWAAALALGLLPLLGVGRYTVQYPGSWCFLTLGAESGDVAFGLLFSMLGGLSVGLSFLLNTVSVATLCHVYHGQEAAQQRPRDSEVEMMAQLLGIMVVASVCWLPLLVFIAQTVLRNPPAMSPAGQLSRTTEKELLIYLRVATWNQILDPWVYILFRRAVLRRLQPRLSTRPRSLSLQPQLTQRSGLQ
Nature of the experiment: FLIPR calcium signal study, HEK-293(EBNA) cells. Type of experiment: cell-based. To be noted: Table 1; NA means not active; read-out: FUNCTIONAL (Ca2+, EC50, nM) HTP. Here is the method: as §2, §1, §3, §4

In a further experiment the target is T4, EP4 receptors (Homo sapiens, UniProt P35408).
T4 construct: expressed in transfected cells; host or cells: HEK-293
T4 sequence (P35408 whole entry): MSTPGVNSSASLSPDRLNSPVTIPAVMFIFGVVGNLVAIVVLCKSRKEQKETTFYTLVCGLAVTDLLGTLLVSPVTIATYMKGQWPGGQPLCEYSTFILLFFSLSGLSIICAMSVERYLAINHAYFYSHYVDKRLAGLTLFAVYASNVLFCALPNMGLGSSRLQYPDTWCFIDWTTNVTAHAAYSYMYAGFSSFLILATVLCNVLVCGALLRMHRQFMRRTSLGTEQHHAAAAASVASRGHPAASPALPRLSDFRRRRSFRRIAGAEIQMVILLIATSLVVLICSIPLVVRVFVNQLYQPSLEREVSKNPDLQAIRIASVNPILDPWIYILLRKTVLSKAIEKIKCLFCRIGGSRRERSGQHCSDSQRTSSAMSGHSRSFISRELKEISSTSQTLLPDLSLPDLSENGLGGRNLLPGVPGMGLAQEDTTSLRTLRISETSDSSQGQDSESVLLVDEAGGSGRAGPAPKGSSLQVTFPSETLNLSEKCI
Nature of the experiment: Radioligand binding, EP4 receptor. The settings on record: Table 3; read-out: BINDING (Ki, nM) HEP4. On the procedure: (§5) HEK-293 cells stably expressing the human or feline FP receptor, or EP1, EP2, or EP4 receptors were washed with TME buffer, scraped from the bottom of the flasks, and homogenized for 30 sec using a Brinkman PT 10/35 polytron. TME buffer was added to achieve a final 40 ml volume in the centrifuge tubes (the composition of TME is 100 mM TRIS base, 20 mM MgCl2, […]; 10N HCl is added to achieve a pH of 7.4).
(§6) The cell homogenate was centrifuged at 19000 r.p.m. for 20 min at 4° C using a Beckman Ti-60 rotor. The resultant pellet was resuspended in TME buffer to give a final 1 mg/ml protein concentration, as determined by Biorad assay. Radioligand binding competition assays vs. [^3H-]17 -phenyl PGF2α (5 nM) were performed in a 100µl volume for 60 min. Binding reactions were started by adding plasma membrane fraction. The reaction was terminated by the addition of 4 ml ice-cold TRIS-HCl buffer and rapid filtration through glass fiber GF/B filters using a Brandel cell harvester. The filters were washed 3 times with ice-cold buffer and oven dried for one hour.
(§7) [^3H-] PGE2 (specific activity 180 Ci mmol) was used as the radioligand for EP receptors. [^3H] 17-phenyl PGF2α was employed for FP receptor binding studies. Binding studies employing EP1, EP2, EP4 and FP receptors were performed in duplicate in at least three separate experiments. A 200µl assay volume was used. Incubations were for 60 min at 25°C and were terminated by the addition of 4 ml of ice-cold 50 mM TRIS-HCl, followed by rapid filtration through Whatman GF/B filters and three additional 4 ml washes in a cell harvester (Brandel). Competition studies were performed using a final concentration of 5 nM [^3H]-PGE2, or 5 nM [^3H] 17-phenyl PGF2α and non-specific binding determined with 10^-5M of unlabeled PGE2, or 17-phenyl PGF2α, according to receptor subtype studied.

In a further experiment the target is T5, HEP3 (Homo sapiens, UniProt P43115).
T5 sequence (P43115 1-390): T2 sequence (P43115 1-390)
The experiment in a line: Radioligand binding, EP3 receptor. The settings on record: Table 3; NA means not active.

For another experiment, the target named is T6, human EP2 receptors (Homo sapiens, UniProt P43116).
T6 construct: expressed in transfected cells; host or cells: HEK 293
T6 sequence (P43116 whole entry): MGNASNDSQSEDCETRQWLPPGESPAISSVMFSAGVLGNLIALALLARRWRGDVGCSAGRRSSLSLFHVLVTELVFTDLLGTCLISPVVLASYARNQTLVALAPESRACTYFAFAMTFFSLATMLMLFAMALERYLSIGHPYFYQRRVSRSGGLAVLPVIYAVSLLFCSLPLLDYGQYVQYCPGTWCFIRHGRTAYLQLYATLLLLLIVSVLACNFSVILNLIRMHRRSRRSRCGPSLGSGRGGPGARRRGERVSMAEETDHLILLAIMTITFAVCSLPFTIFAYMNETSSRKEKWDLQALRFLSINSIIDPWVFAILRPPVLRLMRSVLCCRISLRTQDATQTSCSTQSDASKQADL
The experiment in a line: Competition binding, [3H]PGE2, HEK 293 cells stably expressing human EP2 receptors. On the procedure:
Competition binding experiments were performed in a medium containing Hank's balanced salt solution, Hepes 20 mM, pH 7.3, membranes (∼60 µg protein) or 2x10^5 cells from HEK 293 cells stably expressing human EP2 receptors, [^3H]PGE2 (10 nM) and various concentrations of test compounds in a total volume of 300 µl. Reaction mixtures were incubated at 23 °C for 60 min, and were filtered over Whatman GF/B filters under vacuum. Filters were washed three times with 5 ml ice-cold buffer containing 50 mM Tris/HCl (pH 7.3). Non-specific binding was estimated in the presence of excess unlabeled PGE2 (10 µM). Binding data fitted to the binding model for a single class of binding sites, using nonlinear regression analysis.
as §5, §6, §7

Setting [1] is: Table 1, Ca2+ signal, NA means not active, read-out: FUNCTIONAL (Ca2+, EC50, nM) HEP 2.
The mark [2] stands for this setting: Table 3, read-out: FUNCTIONAL (Ca2+, EC50, nM) HEP3A.
[3] abbreviates: Table 2, unit inferred, read-out: BINDING HEP2.
The mark [4] stands for this setting: Table 2, unit inferred, read-out: FUNCTIONAL HEP2.

Where two headings read alike, the source gives them in different places. A value given as a limit tells only on which side of the number the result lay.

T1 sequence (P43116 whole entry): as above

As for `O=C(O)CCCCCC[C@H]1C(=O)CC[C@@H]1c1ccc(C(O)C2CCCCC2)cc1` (stereo partly drawn) [Entry 13], the EC50 at hEP2/Gqs5 (setting [1]) was 2050 nM.
Take `CCCC1(C(O)c2cccc([C@H]3CCC(=O)[C@@H]3CCCCCCC(=O)O)c2)CCC1` (stereo partly drawn) [Entry 4]: the EC50 on hEP3A/Gqi5 (Table 1, NA means not active, read-out: FUNCTIONAL (Ca2+, EC50, nM) HEP 3A) turned out to be 3830 nM; at hEP2/Gqs5 (setting [1]), 3410 nM.
With `O=C(O)CCCCCC[C@H]1[C@H](Cl)CC[C@@H]1c1ccc(C(O)C2CCCCC2)cc1` (stereo partly drawn) [Entry 21], the EC50 at hTP and at hEP2/Gqs5 (setting [1]) was over 10000 nM throughout.
Take `CCCC1(C(O)c2cccc([C@H]3CCC(=O)[C@@H]3C/C=C\CCCC(=O)OC)c2)CCC1` (stereo partly drawn) [Entry 1]: at hTP, the EC50 was over 10000 nM.
`CCCCCC(O)c1ccc([C@H]2CCC(=O)[C@@H]2C/C=C\CCCC(=O)O)cc1` (stereo partly drawn) [drawing 116]: the EC50 at hEP3A/Gqi5 (setting [2]) turned out to be 552 nM. In addition, the Ki at EP4 receptors and at HEP3 was 15000 nM throughout.
As for `CCCCC(O)Cc1ccc([C@H]2CCC(=O)[C@@H]2CCCCCCC(=O)O)cc1` (stereo partly drawn), the Ki at human EP2 receptors (setting [3]) was determined as 700 nM. For the same compound, the EC50 on hEP2/Gqs5 (setting [4]) was 343 nM.
Taken in the same sequence, the figures for `CCCCCC(O)c1ccc([C@H]2CCC=C2CCCCCCC(=O)O)cc1` (stereo partly drawn) were 2810 nM and 4880 nM.
Turning to `CCCCC(O)c1ccc([C@H]2CCC(=O)[C@@H]2CCCCCCC(=O)OC)cc1` (stereo partly drawn), the Ki on human EP2 receptors (setting [3]) was determined as 15000 nM. Besides, at hEP2/Gqs5 (setting [4]), the EC50 worked out at 15000 nM.
Regarding `CCCCCC(O)c1ccc([C@H]2CCC(=O)[C@@H]2CCCCCCC(=O)O)cc1` (stereo partly drawn), the Ki at human EP2 receptors (Table 3, read-out: BINDING (Ki, nM) HEP2) came to 871 nM; at EP4 receptors it was 15000 nM; on HEP3 it was 5200 nM. For the same compound, the EC50 at hEP3A/Gqi5 (setting [2]) amounted to 90 nM; on hEP2/Gqs5 (Table 3, read-out: FUNCTIONAL (Ca2+, EC50, nM) HEP2), 284 nM.
With `CCCCCC(O)c1ccc([C@H]2CCC(=O)[C@@H]2C/C=C\CCCC(=O)OC)cc1` (stereo partly drawn) [drawing 115], the EC50 at hEP3A/Gqi5 (setting [2]) amounted to 15000 nM. Also, the Ki at EP4 receptors was 15000 nM.
Consider `O=C(O)CCC/C=C\C[C@H]1[C@H](Cl)CC[C@@H]1c1ccc(C(O)C2CCCCC2)cc1` (stereo partly drawn) [Entry 19], for which the EC50 at hEP2/Gqs5 (setting [1]) came to 2100 nM.
Regarding `CCCCC(O)Cc1ccc([C@H]2CCC(=O)[C@@H]2CCCCCCC(=O)OC)cc1` (stereo partly drawn), the Ki at human EP2 receptors (setting [3]) was 4600 nM. Also, the EC50 at hEP2/Gqs5 (setting [4]) was found to be 15000 nM.
Taken in the same sequence, the figures for `CCCCCC(O)c1ccc([C@H]2CCC(=O)[C@@H]2C/C=C\CCCC(=O)O)cc1` (stereo partly drawn) [drawing 97] were 700 nM and 1010 nM.

The values above are taken from patent EP2027081B1, “THERAPEUTIC PROSTAGLANDIN COMPOUNDS FOR THE TREATMENT OF GLAUCOMA” (ALLERGAN, INC., priority 2006, dated 2007).
